The record followed here is ChEMBL document CHEMBL1201862, “PubChem BioAssay data set” (2004).

Among the test systems are ACHN; MOLT-4; DMS-114; SF-539; SNB-75; HOP-62; OVCAR-4; SN12C; COLO 205; CCRF-CEM; NCI-H226; K562; CAKI-1; HCC 2998; A498; NCI-H522; MDA-MB-435; PC-3; MDA-N; MDA-MB-231.
What all share (test): NCI tumour cell line growth inhibition, 48 h

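Values below derive from 48-hour exposures of cells grown in 96-well plates, with endpoints linearly interpolated between the two concentrations bracketing the appropriate inhibition level. GI50: concentration for 50% inhibition of growth.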 Activity calls are given as the source filed them. No stated cut-off is given here; in the data, active = GI50 up to about 1.1 µM and inactive = higher.

For `O=C(c1ccc(Cl)cc1)c1ccc(OCC(=O)N2CCN(c3ccccc3)CC2)cc1`, the GI50 is > 100 µM (inactive) with ACHN; 62.7 µM (inactive) in the assay on MOLT-4; 33.2 µM (inactive) in the assay on DMS-114; > 100 µM (inactive) in the assay with SF-539; > 100 µM (inactive) in the assay with SNB-75; > 100 µM (inactive) in the assay on HOP-62. Further, the GI50 with OVCAR-4, in the assay with SN12C, in the assay with COLO 205, with CCRF-CEM, with NCI-H226 and with K562 was > 100 µM (inactive) in each case. In addition, the values for the GI50 in the assay with CAKI-1, in the assay with HCC 2998 and with A498 were > 100 µM (inactive), > 100 µM (inactive) and 32.1 µM (inactive), respectively.
As to `COc1ccc(C(=O)C(c2ccc(OC)cc2)C2(O)C(=O)Nc3c(Cl)cc(Cl)cc32)cc1` (centres undefined), the GI50 with ACHN was 22.8 µM (inactive); in the assay on MOLT-4, 9.35 µM (inactive); in the assay on DMS-114, 18.4 µM (inactive); in the assay with SNB-75 it was 22.9 µM (inactive); in the assay on HOP-62, 23.8 µM (inactive); with OVCAR-4, 6.34 µM (inactive). Moreover, the GI50 in the assay with SN12C is 18.7 µM (inactive); with COLO 205 it was 29.4 µM (inactive); in the assay with CCRF-CEM, 15.6 µM (inactive); in the assay on NCI-H226, 18.4 µM (inactive); with K562, 16.6 µM (inactive); in the assay with CAKI-1, 19.1 µM (inactive). Besides, the GI50 with HCC 2998 was > 10 µM (inactive); with NCI-H522, 18.2 µM (inactive).
With `O=C1C=C(c2c(O)ccc3ccccc23)c2cc(O)ccc2C1=O`, the GI50 with ACHN was 17.4 µM (inactive); with MOLT-4, 3.09 µM (inactive); in the assay on DMS-114 it was 6.14 µM (inactive); in the assay on SF-539 it was 16.2 µM (inactive); in the assay on SNB-75, 25.4 µM (inactive); with HOP-62 it was 20 µM (inactive). For the same compound, the GI50 was 11.1 µM (inactive) in the assay with OVCAR-4; 18.2 µM (inactive) with SN12C; 19.5 µM (inactive) with COLO 205; 20.9 µM (inactive) in the assay with NCI-H226; > 100 µM (inactive) in the assay on K562; 19.5 µM (inactive) with CAKI-1. In addition, the GI50 in the assay on HCC 2998 was 18.6 µM (inactive).
`CC(C(=O)n1c2ccccc2c2ccccc21)N(c1ccccc1)c1ccccc1` (centres undefined): the GI50 in the assay with ACHN was 16.6 µM (inactive); in the assay with MOLT-4, 11 µM (inactive); in the assay on DMS-114 it was 17.4 µM (inactive); in the assay on SF-539, 19.2 µM (inactive); with SNB-75 it was 20.2 µM (inactive); with HOP-62, 16.3 µM (inactive). The GI50 in the assay on SN12C is 19.9 µM (inactive); with COLO 205, 17.4 µM (inactive); in the assay with CCRF-CEM it was 1.64 µM (inactive); with NCI-H226, 23.7 µM (inactive); with K562, 16.9 µM (inactive); in the assay with CAKI-1 it was 14.5 µM (inactive). The results for the GI50 with HCC 2998 and in the assay with NCI-H522 were 16.3 µM (inactive) and 2.75 µM (inactive), respectively.
With `O=C1OC(=O)C2C3CCC(O3)C12` (centres undefined), the GI50 in the assay with ACHN, with MOLT-4, in the assay on DMS-114, in the assay on SF-539, with HOP-62 and in the assay on SN12C was > 100 µM (inactive) in each case. Moreover, the GI50 with COLO 205, in the assay on CCRF-CEM, with NCI-H226, with K562, with CAKI-1 and in the assay with HCC 2998 was > 100 µM (inactive) throughout. The GI50 in the assay on A498 was > 100 µM (inactive).
In the case of `CC1=NN=C(NCCN(C)C)C/C1=C/c1ccccc1Cl`, the GI50 in the assay on ACHN is > 100 µM (inactive); in the assay on DMS-114, > 100 µM (inactive); in the assay on SF-539, > 100 µM (inactive); in the assay on SNB-75, 20 µM (inactive); in the assay on HOP-62, > 100 µM (inactive); in the assay on OVCAR-4, > 100 µM (inactive). Moreover, the GI50 in the assay on SN12C was > 100 µM (inactive); with COLO 205, > 100 µM (inactive); in the assay on CAKI-1, 73.5 µM (inactive); with HCC 2998, > 100 µM (inactive); with A498, > 100 µM (inactive).
In the case of `O=C1CSC(c2cccc(Oc3ccccc3)c2)N1c1cc(Cl)ccc1Cl` (centres undefined), the GI50 is 24 µM (inactive) with ACHN; 22.6 µM (inactive) with MOLT-4; 15.4 µM (inactive) with MDA-MB-435; 22.6 µM (inactive) with PC-3; 19.1 µM (inactive) in the assay on SF-539; 26.4 µM (inactive) in the assay with SNB-75. Further, the GI50 in the assay with HOP-62 was 21.9 µM (inactive); with OVCAR-4 it was 17.2 µM (inactive); in the assay with SN12C it was 19.5 µM (inactive); with COLO 205, 36.7 µM (inactive); in the assay on CCRF-CEM, 17.2 µM (inactive); with NCI-H226, 23.4 µM (inactive). For the same compound, the GI50 with K562 was 19.4 µM (inactive); in the assay on MDA-N, 17.6 µM (inactive); in the assay with CAKI-1 it was 22.5 µM (inactive); in the assay with HCC 2998 it was 14 µM (inactive); with NCI-H522 it was 20.9 µM (inactive); in the assay with A498 it was 32.6 µM (inactive). In addition, in the assay with MDA-MB-231, the GI50 was 20.7 µM (inactive).
Turning to `O=C1CNNC(CSc2nc3ccc(I)cc3c(=O)n2Cc2ccccc2)=N1`, the GI50 in the assay on ACHN is 16.3 µM (inactive); in the assay with MOLT-4 it was 31.9 µM (inactive); in the assay on MDA-MB-435, 32.6 µM (inactive); with PC-3 it was 24.5 µM (inactive); in the assay with SF-539 it was 22.5 µM (inactive); with SNB-75, 11.6 µM (inactive). In addition, the GI50 in the assay on HOP-62 was 32.3 µM (inactive); in the assay with OVCAR-4, 37.4 µM (inactive); in the assay on SN12C it was 17.1 µM (inactive); in the assay with COLO 205 it was 14.1 µM (inactive); in the assay on CCRF-CEM, 15.4 µM (inactive); in the assay with NCI-H226 it was 18.1 µM (inactive). Moreover, the GI50 in the assay with K562 is 23.7 µM (inactive); with MDA-N, 27.5 µM (inactive); in the assay on CAKI-1, 15 µM (inactive); in the assay with HCC 2998, 27 µM (inactive); in the assay with NCI-H522, 23 µM (inactive); in the assay on A498, 27.8 µM (inactive). In the assay with MDA-MB-231, the GI50 is 14.5 µM (inactive).
With `NC(=O)C(=CNC(N)=S)C(N)=O`, the GI50 in the assay on ACHN, with MOLT-4, in the assay with MDA-MB-435, in the assay on PC-3, in the assay on SF-539 and with SNB-75 was > 100 µM (inactive) throughout. Also, the GI50 in the assay with HOP-62, in the assay with OVCAR-4, in the assay on SN12C, in the assay with COLO 205, in the assay on CCRF-CEM and with NCI-H226 was > 100 µM (inactive) each time. Further, the GI50 in the assay with K562, in the assay with MDA-N, in the assay with CAKI-1, in the assay on HCC 2998, with NCI-H522 and in the assay on A498 was > 100 µM (inactive) throughout. Further, the GI50 in the assay on MDA-MB-231 is > 100 µM (inactive).
As to `COc1ccc(/C=C(/C)[N+](=O)[O-])cc1`, the GI50 is 1.99 µM (inactive) in the assay with ACHN; 1.37 µM (inactive) in the assay on MOLT-4; 1.95 µM (inactive) with MDA-MB-435; 2.16 µM (inactive) in the assay with PC-3; 1.72 µM (inactive) with SF-539; 1.26 µM (inactive) in the assay with SNB-75. Besides, the GI50 with HOP-62 is 1.86 µM (inactive); in the assay on OVCAR-4, 3.09 µM (inactive); in the assay with SN12C, 2.1 µM (inactive); with COLO 205, 2.08 µM (inactive); in the assay with CCRF-CEM it was 0.565 µM (active); with NCI-H226, 21.1 µM (inactive). Moreover, the GI50 in the assay on K562 is 2.62 µM (inactive); with MDA-N it was 2.05 µM (inactive); in the assay on CAKI-1, 2.32 µM (inactive); in the assay with HCC 2998, 1.77 µM (inactive); with NCI-H522 it was 0.292 µM (active); with A498 it was 2.7 µM (inactive). Also, in the assay with MDA-MB-231, the GI50 was 3.24 µM (inactive).
`CN(C)CCCN1CCC2(CCC(C(C)(C)C)CC2)CC1`: the GI50 with ACHN is 7.05 µM (inactive); with MOLT-4, 1.77 µM (inactive); in the assay on MDA-MB-435 it was 0.47 µM (active); in the assay with PC-3, 2.52 µM (inactive); in the assay on SF-539, 1.88 µM (inactive); in the assay on SNB-75, 2.08 µM (inactive). The GI50 is 2.15 µM (inactive) in the assay on HOP-62; 6.31 µM (inactive) with OVCAR-4; 7.35 µM (inactive) in the assay with SN12C; 1.51 µM (inactive) with COLO 205; 1.58 µM (inactive) with CCRF-CEM; 6.82 µM (inactive) in the assay with NCI-H226. The GI50 with K562 was 0.266 µM (active); with MDA-N it was 0.912 µM (active); with CAKI-1, 2.72 µM (inactive); in the assay with HCC 2998, 0.21 µM (active); with NCI-H522 it was 2.49 µM (inactive); in the assay on A498, 2 µM (inactive). For the same compound, the GI50 in the assay on MDA-MB-231 was 1.91 µM (inactive).
As to `O=C(O)c1ccc(NCc2nc3cc4ccccc4cc3[nH]2)cc1`, the GI50 in the assay on ACHN was > 100 µM (inactive); with MOLT-4 it was > 100 µM (inactive); with MDA-MB-435, > 100 µM (inactive); in the assay on PC-3, > 100 µM (inactive); in the assay on SF-539, > 100 µM (inactive); in the assay with SNB-75, 98.6 µM (inactive). For the same compound, the GI50 in the assay with HOP-62 was > 100 µM (inactive); in the assay on OVCAR-4, > 90.4 µM (inactive); in the assay with SN12C it was > 88.5 µM (inactive); in the assay with COLO 205, > 100 µM (inactive); in the assay on CCRF-CEM it was > 100 µM (inactive); in the assay with NCI-H226, > 100 µM (inactive). Further, the GI50 with K562 was > 100 µM (inactive); in the assay with MDA-N, > 100 µM (inactive); with CAKI-1 it was > 100 µM (inactive); with HCC 2998 it was 87.9 µM (inactive); in the assay on NCI-H522, > 100 µM (inactive); with A498 it was > 100 µM (inactive). The GI50 with MDA-MB-231 was > 100 µM (inactive).
